Biological target: MAGL (Mus musculus (Mouse), UniProt O35678)
Experiment: In vitro competitive activity-based protein profiling, mouse brain proteome
Format: biochemical
Conditions: for IC50: mouse brain

Chain of MAGL (O35678 whole entry): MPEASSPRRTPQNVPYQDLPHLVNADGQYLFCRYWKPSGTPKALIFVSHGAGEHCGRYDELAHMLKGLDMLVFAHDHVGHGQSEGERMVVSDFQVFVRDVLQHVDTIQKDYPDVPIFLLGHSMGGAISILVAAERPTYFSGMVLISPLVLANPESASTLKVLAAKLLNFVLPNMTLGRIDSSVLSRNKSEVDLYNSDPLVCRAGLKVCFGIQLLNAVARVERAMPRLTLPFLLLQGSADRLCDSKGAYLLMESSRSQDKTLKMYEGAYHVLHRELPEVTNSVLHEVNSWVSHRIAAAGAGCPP

SMILES	inhibition at 1 µM (1 uM, mouse) [%]	IC50 [nM]	MAGL % Inhibition at 1 uM (Mouse) (1 uM, mouse)
O=C(OC(C(F)(F)F)C(F)(F)F)N1CCC2(CCN(Cc3ccncn3)C2)CC1 [Example 74, 1,1,1,3,3,3-Hexafluoropropan-2-yl 2-(pyrimidin-4-ylmethyl)-2,8-diazaspiro[4.5] decane-8-carboxylate]	> 75	< 100	
CC(C)n1cc(CN2CCCC23CCN(C(=O)OC(C(F)(F)F)C(F)(F)F)CC3)c(-c2cccc(N3CCCC3)c2)n1 [Example 8, 1,1,1,3,3,3-Hexafluoropropan-2-yl 1-((1-isopropyl-3-(3-(pyrrolidin-1-yl)phenyl)-1H-pyrazol-4-yl)methyl)-1,8-diazaspiro[4.5]decane-8-carboxylate]		100 to 1000	### (% inhibition is greater than or equal to 75%)
O=C(OC(C(F)(F)F)C(F)(F)F)N1CCC2(CCCN2Cc2cc(-c3ccc(Cl)cc3)on2)CC1 [Example 47, 1,1,1,3,3,3-Hexafluoropropan-2-yl 1-((5-(4-chlorophenyl)isoxazol-3-yl)methyl)-1,8-diazaspiro[4.5] decane-8-carboxylate]	> 75	< 100	
O=C(OC(C(F)(F)F)C(F)(F)F)N1CCC2(CCCN2Cc2cc3c(Cl)cccc3s2)CC1 [Example 44, 1,1,1,3,3,3-Hexafluoropropan-2-yl 1-((4-chlorobenzo[b]thiophen-2-yl)methyl)-1,8-diazaspiro[4.5] decane-8-carboxylate]	> 75	100 to 1000	
Cc1c(CN(C)C2(C)CCN(C(=O)OC(C(F)(F)F)C(F)(F)F)CC2)sc2ccccc12 [Example 50, 1,1,1,3,3,3-Hexafluoropropan-2-yl 4-methyl-4-(methyl((3-methylbenzo[b]thiophen-2-yl)methyl)amino) piperidine-1-carboxylate]	> 75	100 to 1000	
O=C(OC(C(F)(F)F)C(F)(F)F)N1CCC2(CCN(Cc3ccccn3)C2)CC1 [Example 73, 1,1,1,3,3,3-Hexafluoropropan-2-yl 2-(pyridin-2-ylmethyl)-2,8-diazaspiro [4.5]decane-8-carboxylate]	> 75	100 to 1000	
Cc1c(CN2CCCC23CCN(C(=O)OC(C(F)(F)F)C(F)(F)F)CC3)[nH]c2ccc(Cl)cc12 [Example 48, 1,1,1,3,3,3-Hexafluoropropan-2-yl 1-((5-chloro-3-methyl-1H-indol-2-yl)methyl)-1,8-diazaspiro[4.5] decane-8-carboxylate]	> 75		
O=C(OC(C(F)(F)F)C(F)(F)F)N1CCC2(CCN(Cc3cccnc3)C2)CC1 [Example 64, 1,1,1,3,3,3-Hexafluoropropan-2-yl 2-(pyridin-3-ylmethyl)-2,8-diazaspiro[4.5] decane-8-carboxylate]	> 75	100 to 1000	
O=C(OC(C(F)(F)F)C(F)(F)F)N1CCC2(CCN(Cc3nccs3)C2)CC1 [Example 66, 1,1,1,3,3,3-Hexafluoropropan-2-yl 2-(thiazol-2-ylmethyl)-2,8-diazaspiro [4.5]decane-8-carboxylate]	> 75	< 100	
O=C(OC(C(F)(F)F)C(F)(F)F)N1CCC2(CCN(Cc3cncnc3)C2)CC1 [Example 67, 1,1,1,3,3,3-Hexafluoropropan-2-yl 2-(pyrimidin-5-ylmethyl)-2,8-diazaspiro[4.5] decane-8-carboxylate]	> 75	100 to 1000	
CC(C)n1ccc(C(=O)N2CCCC23CCN(C(=O)OC(C(F)(F)F)C(F)(F)F)CC3)n1 [Example 81, 1,1,1,3,3,3-Hexafluoropropan-2-yl 1-(1-isopropyl-1H-pyrazole-3-carbonyl)-1,8-diazaspiro[4.5] decane-8-carboxylate]	> 75	< 100	
O=C(OC(C(F)(F)F)C(F)(F)F)N1CCC2(CCCN2C(=O)c2cccnc2)CC1 [Example 13, 1,1,1,3,3,3-Hexafluoropropan-2-yl 1-nicotinoyl-1,8-diazaspiro[4.5]decane-8-carboxylate]	> 75		
O=C(O)c1ccc2[nH]c(CN3CCCC34CCN(C(=O)OC(C(F)(F)F)C(F)(F)F)CC4)cc2c1 [Example 15, 2-((8-(((1,1,1,3,3,3-Hexafluoropropan-2-yl)oxy)carbonyl)-1,8-diazaspiro[4.5]decan-1-yl)methyl)-1H-indole-5-carboxylic acid]	25 to 75		
O=C(OC(C(F)(F)F)C(F)(F)F)N1CCC2(CCCN2C(=O)c2cc3ccccc3[nH]2)CC1 [Example 76, 1,1,1,3,3,3-Hexafluoropropan-2-yl 1-(1H-indole-2-carbonyl)-1,8-diazaspiro[4.5] decane-8-carboxylate]	> 75	< 100	
O=C(OC(C(F)(F)F)C(F)(F)F)N1CCC2(CCCN2C(=O)c2cnn(-c3ccccc3)c2)CC1 [Example 72, 1,1,1,3,3,3-Hexafluoropropan-2-yl 1-(1-phenyl-1H-pyrazole-4-carbonyl)-1,8-diazaspiro[4.5] decane-8-carboxylate]	> 75	< 100	
COc1cccc2cc(CN3CCCC34CCN(C(=O)OC(C(F)(F)F)C(F)(F)F)CC4)[nH]c12 [Example 53, 1,1,1,3,3,3-Hexafluoropropan-2-yl 1-((7-methoxy-1H-indol-2-yl)methyl)-1,8-diazaspiro[4.5] decane-8-carboxylate]	> 75		

Further lines, with some results ahead:

inhibition at 1 µM (1 uM, mouse) [%]	IC50 [nM]	SMILES	MAGL % Inhibition at 1 uM (Mouse) (1 uM, mouse)
> 75	< 100	O=C(OC(C(F)(F)F)C(F)(F)F)N1CCC2(CCCN2C(=O)c2cc3cc(F)ccc3s2)CC1 [Example 99, 1,1,1,3,3,3-Hexafluoropropan-2-yl 1-(5-fluorobenzo[b]thiophene-2-carbonyl)-1,8-diazaspiro[4.5] decane-8-carboxylate]	
> 75		CC(C)n1cc(CN2CCCC23CCN(C(=O)OC(C(F)(F)F)C(F)(F)F)CC3)c(-c2cc(Cl)cc(Cl)c2)n1 [Example 220, 1,1,1,3,3,3-Hexafluoropropan-2-yl 1-((3-(3,5-dichlorophenyl)-1-isopropyl-1H-pyrazol-4-yl)methyl)-1,8-diazaspiro[4.5]decane-8-carboxylate]	
> 75	< 100	CC(C)(C)c1cc(CN2CCC3(CCN(C(=O)OC(C(F)(F)F)C(F)(F)F)CC3)C2)n(-c2ccccc2Cl)n1 [Example 217, 1,1,1,3,3,3-Hexafluoropropan-2-yl 2-((3-(t-butyl)-1-(2-chlorophenyl)-1H-pyrazol-5-yl)methyl)-2,8-diazaspiro[4.5]decane-8-carboxylate]	
> 75		O=C(OC(C(F)(F)F)C(F)(F)F)N1CCC2(CCCN2C(=O)c2sc3ccccc3c2Cl)CC1 [Example 97, 1,1,1,3,3,3-Hexafluoropropan-2-yl 1-(3-chlorobenzo[b]thiophene-2-carbonyl)-1,8-diazaspiro[4.5] decane-8-carboxylate]	
> 75	< 100	Cc1c(C(=O)N2CCCC23CCN(C(=O)OC(C(F)(F)F)C(F)(F)F)CC3)sc2ccccc12 [Example 94, 1,1,1,3,3,3-Hexafluoropropan-2-yl 1-(3-methylbenzo[b]thiophene-2-carbonyl)-1,8-diazaspiro[4.5] decane-8-carboxylate]	
> 75	< 100	O=C(OC(C(F)(F)F)C(F)(F)F)N1CCC2(CCCN2C(=O)c2ccc3sccc3c2)CC1 [Example 90, 1,1,1,3,3,3-Hexafluoropropan-2-yl 1-(benzo[b]thiophene-5-carbonyl)-1,8-diazaspiro[4.5] decane-8-carboxylate]	
> 75	< 100	O=C(OC(C(F)(F)F)C(F)(F)F)N1CCC2(CCCN2C(=O)c2cc3cc(Cl)c(Cl)cc3[nH]2)CC1 [Example 111, 1,1,1,3,3,3-Hexafluoropropan-2-yl 1-(5,6-dichloro-1H-indole-2-carbonyl)-1,8-diazaspiro[4.5] decane-8-carboxylate]	
> 75	< 100	O=C(OC(C(F)(F)F)C(F)(F)F)N1CCC2(CCCN2C(=O)c2cc3cccc(C(F)(F)F)c3s2)CC1 [Example 98, 1,1,1,3,3,3-Hexafluoropropan-2-yl 1-(7-(trifluoromethyl)benzo[b]thiophene-2-carbonyl)-1,8-diazaspiro[4.5] decane-8-carboxylate]	
> 75		O=C(OC(C(F)(F)F)C(F)(F)F)N1CCC2(CCCN2Cc2cncs2)CC1 [Example 225, 1,1,1,3,3,3-Hexafluoropropan-2-yl 1-(thiazol-5-ylmethyl)-1,8-diazaspiro [4.5]decane-8-carboxylate]	
> 75	< 100	O=C(OC(C(F)(F)F)C(F)(F)F)N1CCC2(CCCN2Cc2cc3cc(Cl)ccc3[nH]2)CC1 [Example 224, 1,1,1,3,3,3-Hexafluoropropan-2-yl 1-((5-chloro-1H-indol-2-yl)methyl)-1,8-diazaspiro[4.5]decane-8-carboxylate]	
> 75	< 100	O=C(OC(C(F)(F)F)C(F)(F)F)N1CCC2(CCCN2C(=O)c2cc3cc(Cl)ccc3s2)CC1 [Example 95, 1,1,1,3,3,3-Hexafluoropropan-2-yl 1-(5-chlorobenzo[b]thiophene-2-carbonyl)-1,8-diazaspiro[4.5] decane-8-carboxylate]	
> 75		O=C(OC(C(F)(F)F)C(F)(F)F)N1CCC2(CCCN2C(=O)c2cc3cc(C(F)(F)F)ccc3[nH]2)CC1 [Example 100, 1,1,1,3,3,3-Hexafluoropropan-2-yl 1-(5-(trifluoromethyl)-1H-indole-2-carbonyl)-1,8-diazaspiro[4.5] decane-8-carboxylate]	
> 75	< 100	O=C(OC(C(F)(F)F)C(F)(F)F)N1CCC2(CCCN2C(=O)c2nc3ccccc3o2)CC1 [Example 84, 1,1,1,3,3,3-Hexafluoropropan-2-yl 1-(benzo[d]oxazole-2-carbonyl)-1,8-diazaspiro[4.5] decane-8-carboxylate]	
> 75	< 100	Cc1cccc2cc(C(=O)N3CCCC34CCN(C(=O)OC(C(F)(F)F)C(F)(F)F)CC4)[nH]c12 [Example 108, 1,1,1,3,3,3-Hexafluoropropan-2-yl 1-(7-methyl-1H-indole-2-carbonyl)-1,8-diazaspiro[4.5] decane-8-carboxylate]	

— US11142526B2, “Spirocycle compounds and methods of making and using same” (H. Lundbeck A/S, priority 2017, dated 2021)
